Laboratory results from patent US20230279482A1, “COMPOSITIONS, METHODS AND USES FOR QUANTIFYING TRANSCRIPTION AND BIOSENSING OF SMALL MOLECULES USING A NOVEL TYPE VI CRISPR-CAS ASSAY” (THE REGENTS OF THE UNIVERSITY OF COLORADO, A BODY CORPORATE, priority 2020, published 2023).

Biological target: T1, Cas13a (Leptotrichia wadei, UniProt U2PSH1)
T1 construct: His-tag (N, cleaved yes); twinstrep (N, cleaved yes); SUMO (N, cleaved yes); made in house; host or cells: BL21(DE3) Rosetta Escherichia coli
T1 sequence (U2PSH1 1-1182): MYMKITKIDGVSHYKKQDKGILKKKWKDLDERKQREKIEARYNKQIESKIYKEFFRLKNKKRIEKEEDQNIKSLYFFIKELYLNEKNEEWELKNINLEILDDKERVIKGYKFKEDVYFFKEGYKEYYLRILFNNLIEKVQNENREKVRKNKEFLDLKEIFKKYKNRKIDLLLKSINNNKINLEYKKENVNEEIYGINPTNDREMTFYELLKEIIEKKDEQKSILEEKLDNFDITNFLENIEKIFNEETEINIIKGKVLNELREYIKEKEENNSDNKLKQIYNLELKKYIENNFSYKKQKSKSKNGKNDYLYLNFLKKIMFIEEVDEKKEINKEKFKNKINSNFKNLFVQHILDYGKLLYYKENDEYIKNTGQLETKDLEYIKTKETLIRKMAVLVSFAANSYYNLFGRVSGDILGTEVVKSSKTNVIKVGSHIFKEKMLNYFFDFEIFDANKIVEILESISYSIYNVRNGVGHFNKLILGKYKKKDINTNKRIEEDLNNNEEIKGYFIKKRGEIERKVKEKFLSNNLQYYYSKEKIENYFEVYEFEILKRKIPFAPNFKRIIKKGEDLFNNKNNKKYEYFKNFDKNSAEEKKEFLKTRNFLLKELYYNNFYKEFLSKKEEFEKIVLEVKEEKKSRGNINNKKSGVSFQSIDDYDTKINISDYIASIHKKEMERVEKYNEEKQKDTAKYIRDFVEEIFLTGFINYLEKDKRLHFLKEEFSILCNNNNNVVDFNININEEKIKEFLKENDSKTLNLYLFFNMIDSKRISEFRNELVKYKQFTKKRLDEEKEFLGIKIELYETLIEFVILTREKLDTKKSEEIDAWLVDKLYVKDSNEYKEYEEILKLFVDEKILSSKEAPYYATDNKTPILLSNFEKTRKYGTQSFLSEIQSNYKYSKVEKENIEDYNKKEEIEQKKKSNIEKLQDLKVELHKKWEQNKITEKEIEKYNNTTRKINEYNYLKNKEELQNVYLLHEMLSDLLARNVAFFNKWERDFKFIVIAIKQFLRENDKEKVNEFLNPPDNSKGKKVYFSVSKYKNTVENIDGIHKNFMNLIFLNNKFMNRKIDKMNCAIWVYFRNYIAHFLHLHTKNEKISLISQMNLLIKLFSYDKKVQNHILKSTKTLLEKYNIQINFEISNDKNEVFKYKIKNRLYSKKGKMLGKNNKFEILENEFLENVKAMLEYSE
Assay: SHERLOCK reactions without RNAP at varying sodium fluoride
Assay type: biochemical, Leptotrichia wadeii
Conditions: FIG. 6A
Method: Purification of LwaCas13a protein. LwaCas13a from Leptotrichia wadeii has a specific preference for collaterally cleaving poly-uracil ssRNA oligos and was used for various experiments in these examples. LwaCas13a was purified as follows. The expression plasmid (pC013) encoded LwaCas13a with an N-terminal His-tag, followed by twinstrep and SUMO tags. The plasmid was transformed into BL21(DE3) Rosetta Escherichia coli cells. 20 mL bacterial culture was grown overnight in Luria broth (LB) medium supplemented with 100 μM carbenicillin that was used to inoculate 1 L cultures in LB medium. The culture was shaken at 37° C. until the OD600 reached around 0.6. The culture was cooled down to approximately 20° C. in a cold water bath and protein expression was induced by adding 0.5 mM Isopropyl beta-D-1-thiogalactopyronoside (IPTG). The culture was grown in a 20° C. shaker for 16 hours. […] Protein concentration was determined using the absorbance at 280 nm and an extinction coefficient of 119800 M^−1 cm^−1; 1.5 mL of 47 μM protein was obtained from 2 liters of culture. […]
In other methods, SHERLOCK reactions were performed with purified target RNA as input, the concentration of the components, order of addition of components and measurement of fluorescence was carried out the same way as in the SPRINT reactions. […]

[F-].[Na+] [fluoride, sodium fluoride]
fluoride concentration at which Cas13a activity sharply dropped: around 600 μM
